Two compounds from US20220364181A1, “METHOD AND A KIT FOR PREDICTING THE SUSCEPTIBILITY TO STIMULATOR OF INTERFERON GENES (STING) AGONISTS IN A CANCER PATIENT” (China Medical University, priority 2021, published 2022) can be followed below.

One test relates to MC38 cell line. The experiment in a line: In vitro assay for susceptibility to STING agonists, ELISA of interferon β, MC38. The note with it: 100 μg/mL STING agonist, 24 hours. It is filed as cell-based, mouse. As for the experimental part: (§1) Two cancer cell lines, the mouse mammary carcinoma cell line EMT6 and the mouse colon adenocarcinoma cell line MC38, were used in the present invention as the models of cell assays.
(§2) These two cancer cell lines were divided into two groups, one group was treated with cell culture medium, and named as MTAP (+); the other group was treated with siRNA of the S-methyl-5′-thioadenosine phosphorylase (MTAP) for gene knock-out, and named as MTAP(−).
In the present invention, two cancer cell lines (EMT6 cell line and MC38 cell line) of MTAP (+) and MTAP (−) were stimulated with STING agonists, and then the expression level of Type I Interferon was measured to determine the activity of the STING agonists.
The STING agonists used in the present invention included MIW815 and E7766, and two cells were divided into six groups, respectively, the MTAP(+) Control Group, the MTAP(−) Control Group, MTAP(+) MIW815 Group, MTAP(+) E7766 Group, MTAP(−) MIW815 Group and MTAP(−) E7766 Group.
In this assay, after culturing the EMT6 cell line and the MC38 cell line for 12 hours, the medium of the cells in the MTAP(+) STING Group and the MTAP(−) STING Group were replaced with a medium containing 100 μg/mL of STING agonists, and then subjected to stimulation for 24 hours.
(§3) The cells were harvested, and a portion of the cells was used for enzyme-linked immunosorbent assay (ELISA) to detect the expression level of interferon β (IFN β); the other portion was used for extraction of mRNA with TRizol, and then real-time quantitative reverse transcription polymerase chain reaction (RT-qPCR) was used to amplify its DNA fragments for detecting the gene expression levels of the interferon beta gene (IFNb1) and interferon-stimulated genes MX1 and ISG15.

For the next test, the system named is EMT6 cell lines. The experiment in a line: Animal experiment, tumor size of mice inoculated with EMT6 cell lines. It is filed as in vivo. As for the experimental part: In the present invention, the EMT6 cell lines with expressed MTAP (MTAP(+) Group) and the EMT6 cell lines with no expressed MTAP (MTAP(−) Group) were inoculated into mice for in vivo assays of the activity of STING agonists.
In this experiment, MIW815 was selected as the STING agonist, and the mice were divided into 4 groups, 5 mice in each group, namely the MTAP(+) Control Group, the MTAP(−) Control Group, the MTAP(+) MIW815 Group and the MTAP(−) MIW815 Group.
Drugs were administered after the cancer cells grew to be more than 100 mm^3. Phosphate buffered saline solution (PBS) was given to the MTAP(+) Control Group and the MTAP(−) Control Group; and 50 μg of STING agonist MIW815 was given to the MTAP(+) MIW815 Group and the MTAP(−) MIW815 Group at Day 9, 12 and 16.

The test system of the next test is EMT6 cell line. The experiment in a line: In vitro assay for susceptibility to STING agonists, ELISA of interferon β, EMT6. Type of test: cell-based, mouse. As to conditions: EMT6 MTAP(−) cells compared with MTAP(+) cells, 100 μg/mL STING agonist, 24 hours. The procedure:
as §1, §2
In the present invention, two cancer cell lines (EMT6 cell line and MC38 cell line) of MTAP (+) and MTAP (−) were stimulated with STING agonists, and then the expression level of Type I Interferon was measured to determine the activity of the STING agonists. […]
as §3

The mark [1] stands for this setting: MC38 MTAP(−) cells compared with MTAP(+) cells.

As for `Nc1ncnc2c1ncn2[C@@H]1O[C@@H]2COP(=O)([S-])O[C@@H]3[C@H](O)[C@@H](COP([O-])(=S)O[C@H]2[C@H]1O)O[C@H]3n1cnc2c(N)ncnc21.[Na+].[Na+]` (some centres unmarked) [MIW815], the “expression of interferon β (IFN β), ELISA” value in the test on MC38 cell line (MC38 MTAP(+) cells) was “effectively stimulated the expression of IFN 13”; in the test on MC38 cell line (setting [1]) it was “significantly lower”; in the test with EMT6 cell line, “significantly lower”. The tumor size result with EMT6 cell lines (EMT6 MTAP(+) tumors, 50 μg at Day 9, 12 and 16, compared with MTAP(+) Control Group (PBS)) is “significantly smaller”; with EMT6 cell lines (EMT6 MTAP(−) tumors, 50 μg at Day 9, 12 and 16, compared with MTAP(−) Control Group (PBS)) it was “not statistically different”.
For the compound `O=[P@]1(S)OC[C@H]2O[C@@H]3[C@H](F)[C@@H]2O[P@](=O)(S)OC[C@H]2O[C@H]([C@H](F)[C@@H]2O1)n1cnc2c(ncnc21)NC/C=C/CNc1ncnc2c1ncn23` [E7766], the “expression of interferon β (IFN β), ELISA” value with MC38 cell line (MC38 MTAP(+) cells) is given as “effectively stimulated the expression of IFN 13”; with MC38 cell line (setting [1]) it was “significantly lower”; in the test on EMT6 cell line, “significantly lower”.
